Data on two compounds can be found in US20260325504A1, “Genetically Engineered Human Pituitary Corticotroph Tumor Organoids Exhibit Divergent Responses to Selective Glucocorticoid Receptor Modulators” (Corcept Therapeutics Incorporated, priority 2022, published 2026).

One assay deals with PitNET organoids. The assay is described as follows: PitNET organoid proliferation, apoptosis and cell death (summary). As to conditions: for tumor cell apoptosis / cell death: PitNET organoids. It is filed as cell-based, human. Here is the method:
iPSCs were stained for pituitary specific hormones including luteinizing hormone (LH), follicle-stimulating hormone (FSH), growth hormone (GH), prolactin (PRL), ACTH, cytokeratin 8/18 (CAM5.2), pituitary transcription factor PIT-1 and neuroendocrine marker Synaptophysin (Table 5). Cultures were immunostained for proliferation marker EdU (Click-IT EdU Alexa Fluor 555 Imaging Kit, Thermo Fisher Scientific C10338). Antibody dilutions were determined based on manufacturer guidelines and antibody titration (Table 5). Staining was conducted according to previously published protocols. Briefly, organoids and iPSCs grown in 8-well glass bottom chamber slides were fixed using 3.7% formaldehyde, washed with DPBS, permeabilized with 0.5% Triton X-100 (SIGMA X-100, PBS-T, 20 min at room temperature), washed with 0.01% PBS-T, and blocked with 2% donkey serum (Jackson Immuno Research 017-000-121) for 1 hour at room temperature. After blocking, primary antibodies were added and incubated overnight at 4° C. […] Fluorescence intensity was quantified as the percentage of marker-positive cells versus total cells, using Nikon Elements Software (Version 5.21.05). Proliferation for each iPSC line was quantified as the percentage of EdU-positive cells versus total cells.
Nuclear Morphometric Analysis (NMA) using treated organoids was performed based on a published protocol that measures cell viability based on the changes in nuclear morphology of the cells using nuclear stain Hoechst or DAPI [31]. Images of organoid nuclei were analyzed using the ImageJ Nuclear Irregularity Index (NII) plugin for key parameters that included cell area, radius ratio, area box, aspect, and roundness. Using the published spreadsheet template, the NII of each cell was calculated with the following formula: NII=Aspect−Area Box+Radius Ratio+Roundness. […] The percentage of cells in each NII classification category were calculated and plotted as a histogram using GraphPad Prism. […]

The test system of another assay is SSTR5. The assay is described as follows: Differential expression of SSTR5 (qRT-PCR) in iPSC generated pituitary organoids. It is filed as cell-based, human. As to conditions: for expression of SSTR5: 500 nM, vs vehicle; for SSTR5 induction relative to SSTR2: PitNET organoids, summary. Here is the method:
Sonic Hedgehog (SHH) was withdrawn from the organoid growth media 16 hours prior to treatment. The experimental treatment groups included: vehicle (Veh), mifepristone (500 nM, Selleckchem S2606), GANT61 (5 μM, Stemcell Technologies 73692), ketoconazole (Keto, 10 μM, Selleckchem S1353), pasireotide (Pas, 100 nM, Target Mol TP2207-SB001), octreotide (Oct, 100 nM, Selleckchem P1017), mifepristone plus GANT61, mifepristone plus Keto, mifepristone plus Pas, relacorilant (500 nM, Corcept Therapeutics CORT125134), relacorilant plus Pas, relacorilant plus Oct, or dexamethasone (Dexa, 100 nM, SIGMA S4902). In the combination treatments, cultures were pretreated with the GANT61, Keto, Pas or Oct for 2 hours prior to treatment with mifepristone or Rela. PitNET tissue derived organoids hPITO36, hPITO37, hPITO38, hPITO39, and hPITO40 were treated with the following experimental conditions: Vehicle (1), pasireotide (2), relacorilant (3), relacorilant & pasireotide (4), mifepristone (5), mifepristone & pasireotide (6). The IC50 values used for each hPITO line for each drug were determined based on dose responses (FIG. 12). All organoid cultures were treated for 48 hours prior to analysis.
RNA was extracted from PitNET tissue or iPSC generated organoids using TRI Reagent® (Molecular Research Center Inc TR118) and the High Capacity cDNA Reverse Transcription Kit (Applied Biosystems, Foster City, CA) was used for cDNA synthesis of RNA following the recommended protocol. For each sample, 60 ng RNA was reverse transcribed to yield approximately […] total cDNA that was then used for the qRT-PCR. Pre-designed real-time polymerase chain reaction assays were purchased for the following genes: TPit (Thermo Fisher Scientific 4331182 Hs00193027), SF1 (Thermo Fisher Scientific 4331182 Hs00610436), SSTR2 (Thermo Fisher Scientific 4331182 Hs00265624_s1), SSTR5 (Thermo Fisher Scientific 4331182 Hs00990407_s1), POMC (Thermo Fisher Scientific 4331182 Hs01596743_ml), hPRT (Thermo Fisher Scientific 4331182 Hs02800695_ml), and FKBP5 (Thermo Fisher Scientific 4331182 Hs01561006_m1). Polymerase chain reaction amplifications were performed in a total volume of 20 μL containing 20× TaqMan Expression Assay primers, 2× TaqMan Universal Master Mix (Applied Biosystems, TaqMan® Gene Expression Systems), and cDNA template. Each polymerase chain reaction amplification was performed in triplicate wells in a StepOne Real-Time PCR System (Applied Biosystems) by using the following conditions: 500C 2 minutes, 95° C. 10 minutes, 95° C. 15 seconds (denature) and 60° C. 1 minute (anneal/extend) for 40 cycles. Fold change was calculated as the following: (Ct-Ct high)=n target, 2ntarget/2nHPRT=fold change where Ct=threshold cycle. The results were expressed as average fold change in or differential gene expression relative to control, with HPRT used as an internal control according to Livak and Schmittgen.

“Also recorded” adds a separate entry of the source.

For the compound `CC#C[C@]1(O)CC[C@H]2[C@@H]3CCC4=CC(=O)CCC4=C3[C@@H](c3ccc(N(C)C)cc3)C[C@@]21C` [mifepristone, 11β-(4-dimethylaminophenyl)-17ß-hydroxy-17α-(1-propynyl)-estra-4,9-dien-3-one], the PitNET organoid proliferation entry with PitNET organoids (compared to relacorilant) was “preferentially induced the expression of SSTR2, ACTH secretion and PitNET organoid proliferation”. In addition, in the assay on SSTR5 (iPSC organoids, 48 h), the “expression of SSTR5” value is “significant induction; also recorded: significantly induced the expression”. The “differential expression of SSTR5” value in the assay with SSTR5 (iPSCctrl organoids, compound alone, 48 h, FIG. 5C, D) is listed as “significantly induced”.

As for `Cn1cc(S(=O)(=O)N2CCC3=Cc4c(cnn4-c4ccc(F)cc4)C[C@]3(C(=O)c3cc(C(F)(F)F)ccn3)C2)cn1` [relacorilant, (R)-(1-(4-fluorophenyl)-6-((1-methyl-1H-pyrazol-4-yl)sulfonyl)-4,4a,5,6,7,8-hexahydro-1H-pyrazolo[3,4-g]isoquinolin-4a-yl) (4-(trifluoromethyl)pyridin-2-yl) methanone], the “tumor cell apoptosis / cell death” value with PitNET organoids is “induced SSTR5 expression and PitNET organoid apoptosis; also recorded: induced PitNET cell death”; with PitNET organoids (listed as Relacorilant), “induces SSTR5 and tumor cell apoptosis”. Besides, the “SSTR5 induction relative to SSTR2” value in the assay with SSTR5 is listed as “predominantly induced SSTR5 expression; also recorded: greater induction of SSTR5 expression as compared to SSTR2”; with SSTR5 (listed as Relacorilant), “predominantly induces SSTR5”. Also, in the assay with SSTR5 (iPSC organoids, 500 nM each, 48 h, FIG. 5B), the “induction in SSTR5 expression, relacorilant compared to mifepristone” value is “induced greater SSTR5 expression”. For the same compound, the “expression of SSTR5” value in the assay on SSTR5 (iPSC organoids, 48 h) is “significant induction; also recorded: significantly induced the expression”.
